In ChEMBL document CHEMBL5357010, “Amine Basicity of Quinoline ATP Synthase Inhibitors Drives Antibacterial Activity against Pseudomonas aeruginosa” (ACS Med Chem Lett, 2024):
Converted amounts (≈) assume the structure as drawn.

How the values were obtained:
[1] = Solubility of the compound in antibacterial activity assay medium; format: physicochemical
[2] = Inhibition of Escherichia coli electron transport chain in inverted membrane vesicles; format: cell membranes
[3] = Inhibition of Pseudomonas aeruginosa ATP synthase expressed in Escherichia coli DK8/pASH20 inverted membrane vesicles by luciferin/luciferase luminescence assay; format: cell membranes, Membrane vesicle
[4] = Inhibition of Pseudomonas aeruginosa 9027 electron transport chain in inverted membrane vesicles assessed as fluorescence quenching using amino-6-chloro-2-methoxyacridine; format: cell membranes
[5] = Selectivity ratio of IC50 for Pseudomonas aeruginosa 9027 electron transport chain to IC50 for Pseudomonas aeruginosa ATP synthase; format: toxicity
Pseudomonas aeruginosa [6] = assay: Antibacterial activity against Pseudomonas aeruginosa ATCC BAA-2109 assessed as growth inhibition incubated for 12 to 15 hrs by broth microdilution method; format: functional; conditions: time 12-15 hrs
Pseudomonas aeruginosa [7] = assay: Antibacterial activity against Pseudomonas aeruginosa ATCC BAA-2108 assessed as growth inhibition incubated for 12 to 15 hrs by broth microdilution method; format: functional; conditions: time 12-15 hrs
Pseudomonas aeruginosa [8] = assay: Antibacterial activity against Pseudomonas aeruginosa efflux knockout GKCW120 (Pdelta6) assessed as growth inhibition incubated for 12 to 15 hrs by broth microdilution method; format: functional; conditions: time 12-15 hrs
Pseudomonas aeruginosa [9] = assay: Antibacterial activity against Pseudomonas aeruginosa ATCC BAA-2110 assessed as growth inhibition incubated for 12 to 15 hrs by broth microdilution method; format: functional; conditions: time 12-15 hrs
Pseudomonas aeruginosa [10] = assay: Antibacterial activity against Pseudomonas aeruginosa 9027 assessed as growth inhibition incubated for 12 to 15 hrs by broth microdilution method; format: functional; conditions: time 12-15 hrs

Molecule | IC50 [3] [µg/mL] | IC50 [4] [µg/mL] | Ratio IC50 [5] | other results
CN(C)c1ccc(CNCc2cc3ccccc3nc2SCc2ccccc2)cc1 |  |  |  | solubility [1]: > 16 µg/mL
c1ccc(CSc2nc3ccccc3cc2CNCCc2cnc[nH]2)cc1 | 2 (≈ 5.34 µM) | 7 (≈ 18.7 µM) |  | IC50 [2]: 14 µg/mL (≈ 37.4 µM)
CN(C)CCCNCc1cc2ccccc2nc1SCc1ccccc1 | 6 (≈ 16.4 µM) | 44 (≈ 120 µM) | 7 | 
CSc1nc2ccccc2cc1CNCCC1CCN(C2CCCC2)CC1 | 21 (≈ 54.7 µM) |  |  | 
CSc1nc2ccccc2cc1CNCCc1cnc[nH]1 | 16 (≈ 53.6 µM) |  |  | 
CSc1nc2ccccc2cc1CNCCCCN(C)C | 68 (≈ 224 µM) |  |  | 
CCN1CCC(CCNCc2cc3ccccc3nc2SCc2ccccc2)CC1 | 1 (≈ 2.38 µM) | 26 (≈ 62 µM) | 26 | 
CSc1nc2ccccc2cc1CNCCCN(C)C | 43 (≈ 149 µM) |  |  | 
GENTAMICIN |  |  |  | MIC>85 (Pseudomonas aeruginosa [6]): 2 µg/mL; MIC>85 (Pseudomonas aeruginosa [7]): 16 µg/mL; MIC>85 (Pseudomonas aeruginosa [8]): > 4 µg/mL; MIC>85 (Pseudomonas aeruginosa [9]): 4 µg/mL; MIC>85 (Pseudomonas aeruginosa [10]): 2 µg/mL
CSc1nc2ccccc2cc1CNCCCCCN(C)C | 19 (≈ 59.8 µM) |  |  | 
CN(C)CCCCNCc1cc2ccccc2nc1SCc1ccccc1 | 1 (≈ 2.63 µM) | 26 (≈ 68.5 µM) | 26 | 
CN(C)CCCCCNCc1cc2ccccc2nc1SCc1ccccc1 | 2 (≈ 5.08 µM) | 57 (≈ 145 µM) | 28 | 
CSc1nc2ccccc2cc1CNCCc1nc(C)cc(C)n1 | 67 (≈ 198 µM) |  |  | 
CSc1nc2ccccc2cc1CNCc1ccc(N(C)C)cc1 | 5 (≈ 14.8 µM) |  |  | 
CSc1nc2ccccc2cc1CNCc1ccc(CN(C)C)cc1 | 30 (≈ 85.3 µM) | 29 (≈ 82.5 µM) | 1 | MIC>85 (Pseudomonas aeruginosa [6]): 256 µg/mL (≈ 728 µM); MIC>85 (Pseudomonas aeruginosa [7]): 128 µg/mL (≈ 364 µM); MIC>85 (Pseudomonas aeruginosa [8]): 64 µg/mL (≈ 182 µM); MIC>85 (Pseudomonas aeruginosa [9]): >256 µg/mL; MIC>85 (Pseudomonas aeruginosa [10]): >256 µg/mL
Cc1cc(C)nc(CCNCc2cc3ccccc3nc2SCc2ccccc2)n1 | 3 (≈ 7.24 µM) |  |  | 
Cn1cccc1CCNCc1cc2ccccc2nc1SCc1ccccc1 | 4 (≈ 10.3 µM) |  |  | 
CN(C)Cc1ccc(CNCc2cc3ccccc3nc2SCc2ccccc2)cc1 | 2.3 (≈ 5.38 µM) | 27 (≈ 63.1 µM) | 12 | MIC>85 (Pseudomonas aeruginosa [6]): >128 µg/mL; MIC>85 (Pseudomonas aeruginosa [7]): 64 µg/mL (≈ 150 µM); MIC>85 (Pseudomonas aeruginosa [8]): 16 µg/mL (≈ 37.4 µM); MIC>85 (Pseudomonas aeruginosa [9]): >128 µg/mL; MIC>85 (Pseudomonas aeruginosa [10]): >128 µg/mL
c1ccc(CSc2nc3ccccc3cc2CNCCC2CCN(C3CCCC3)CC2)cc1 | 1 (≈ 2.18 µM) | 14 (≈ 30.5 µM) | 14 | 
CSc1nc2ccccc2cc1CNCCc1cccn1C | 5 (≈ 16.1 µM) |  |  | 
CCN1CCC(CCNCc2cc3ccccc3nc2SC)CC1 | 39 (≈ 114 µM) |  |  | 
